Test results reported in patent US20120213720A1, “Prodrug composition for skin with twin protecting groups bound by disubstituted benzene” (priority 2011, published 2012).

Experiments:
melanin synthesis = settings: cited from earlier work
melanocytes in the skin = settings: cited from earlier work
skin = settings: cited from earlier work
[1] = test system: facial freckles and the normal facial skin; assay: Clinical test of whitening effect of DAP-containing cream, smart skin analysis system; assay type: in vivo
Method: Moreover, for proving the whitening effect of the DAP-containing prescription according to the present invention, a clinical test was performed and used the detection device shown in Table 7. Six subjects joining the test received the cream preparation containing 1% or 2% DAP on facial freckles and the normal facial skin twice a day for consecutive […] (2010 Nov. 24-2010 Dec. 15), and the whitening effect was evaluated. [table] According to the foregoing clinical test, data graphs with respect to the disclosed prodrug composition as shown in FIG. 2 through FIG. 7 have been made, while the photographs showing the tested sites of several subjects are reflected in FIG. 8 through FIG.

| Structure (SMILES) | anti-melanin effect, times higher than that of HQ (melanin synthesis; relative to HQ) | anti-melanin effect, times higher than that of normal arbutin (melanin synthesis; relative to normal arbutin) | safety concentration relative to HQ (melanocytes in the skin) | time to desired clinical effects (skin; DA solutions with proper concentration) | effect of whitening the skin (skin; local usage, clinical research for 8 weeks) | side effects (toxic to melanocytes, irritative, allergenic to the skin) ([1]; four-week clinical test, 1% or 2% DAP cream twice a day) | whitening effect on the normal skin ([1]; prescription containing 1% DAP, consecutive four weeks, left cheek) | whitening effect on the solar lentigines ([1]; prescription containing 2% DAP, consecutive four weeks, left cheek) |
| --- | --- | --- | --- | --- | --- | --- | --- | --- |
| Oc1ccc(OC2CCCCO2)cc1 (centres unmarked) [DA, deoxy-arbutin] | 10 times | 350 times | four times higher | three weeks | progressive and apparent effect of whitening the skin | – | – | – |
| c1cc(OC2CCCCO2)ccc1OC1CCCCO1 (centres unmarked) [DAP, 1,4-bis(tetrahydro-2H-pyran-2-yloxy)benzene] | – | – | – | – | – | without side effects | up to 19% | up to 46% |
